# Test results as given in paper PMC12234328, “A naphthalimide derivative exerts potent antiplatelet and antithrombotic activities without a bleeding tendency” (Frontiers in Pharmacology, 2025).
# Key:
# [1] = system: tail bleeding (hemostasis); test: Tail-bleeding assay; format: in vivo; settings: 0.3, 0.6 or 1.2 mg/kg, mice, n = 6
# Description: For the tail-bleeding assay, the mice were anesthetized with an oxygen–air mixture containing 3% isoflurane at a gas flow rate of 1.5–2 L/min. A bolus dose of compound 6 (0.3 mg/kg, 0.6 mg/kg, or 1.2 mg/kg), DMSO (solvent control; 1.1 g/kg), or aspirin (20 mg/kg; positive control) was intraperitoneally administered for 30 min. A 3-mm incision was then made at the tail tip to induce bleeding. The bleeding tail stump was immediately immersed in saline, and the bleeding time was recorded. […] A formula for dose translation based on the […] was used to calculate the dose for use in the mice ([Reagan-Shaw et al., 2008]).
# FIGURE 3 Effects of compound 6 on thrombosis and hemostasis in mice. Mice were treated with compound 6 (0.3, 0.6, or 1.2 mg/kg), DMSO (solvent control), or aspirin (20 mg/kg; positive control) via intravenous route for 10 min. (A) The microthrombus formation (arrows) in mesenteric venules. Scale bar = 30 μm. […] Each point on the plot indicates a mouse (n = 6). Data (A,B) are presented as means ± SEM (n = 6). *p < 0.05 and ***p < 0.001 compared with the DMSO group.
# [2] = system: human platelet suspensions stimulated with U46619; test: U46619-induced platelet aggregation; format: cell-based; settings: 5–50 μM, 1 μM U46619
# Source text: (§1) This study received approval from the Taipei Medical University–Joint Institutional Review Board (TMU-JIRB-No. N202003148) and adhered to the principles of the Declaration of Helsinki. Informed consent was obtained from all volunteers before their participation. Human platelets were washed and prepared according to previously established methods ([Lu et al., 2019]). Whole blood was collected from healthy participants who had not taken any medications, including nonsteroidal anti-inflammatory drugs or aspirin, in the preceding 2 weeks. The blood was drawn into polypropylene tubes containing an acid citrate–dextrose solution (9:1, v/v). After mixing, the samples were centrifuged at 120 g for 10 min. The upper layer of platelet-rich plasma was collected and supplemented with prostaglandin E1 and heparin. Following further centrifugation at 500 g for 10 min, the platelet pellets were washed twice. The platelets were then resuspended in Tyrode’s solution containing 3.5 mg/mL bovine serum albumin (B.S.A.) to create platelet suspensions. The final Ca^2+ concentration of the platelet suspensions (3.6 × 10^8 cells/mL) was 1 mM.
# (§2) Platelet aggregation was measured using a lumi-aggregometer (Payton, Scarborough, Canada) through the turbidimetric method ([Lu et al., 2019]). […] Subsequently, various agonists were added and platelet aggregation was then recorded for an additional 6 min. […]
# [3] = system: human platelet suspensions stimulated with thrombin; test: Thrombin-induced platelet aggregation; format: cell-based; settings: 5–50 μM, 0.02 U/mL thrombin
# Source text: as §1, §2
# [4] = system: FeCl3-induced thrombosis in mesenteric artery; test: FeCl3-induced mesenteric artery thrombosis in mice; format: in vivo; settings: 1.2 mg/kg i.v., 30% FeCl3, relative to DMSO group
# Description: Mice were anesthetized with an oxygen–air mixture containing 3% isoflurane at a gas flow rate of 1.5–2 L/min. To label platelets, they were injected with the fluorescent dye rhodamine 6G (0.6 mg/kg). 10 min before FeCl3 treatment, mice were intravenously administered DMSO (1.1 g/kg, solvent control), compound 6 (1.2 mg/kg), or aspirin (20 mg/kg, positive control). The mesenteric arteries were surgically exposed and injured by applying a filter paper saturated with 30% FeCl3 for 5 min to induce thrombosis. Thrombus formation was then continuously monitored using a fluorescence microscope (Olympus, Tokyo, Japan).
# FIGURE 4 Effects of compound 6 on collagen/epinephrine-induced pulmonary thrombosis and FeCl3-induced thrombosis in mesenteric artery. Mice were intravenously administered with DMSO (solvent control), compound 6 (1.2 mg/kg), or aspirin (20 mg/kg, positive control) for 10 min (A) Mice were injected with collagen/epinephrine to induce pulmonary embolism, which was detected through staining with Evans blue (left panel). The survival rate was recorded for 24 h (right panel). Data are presented as means ± SEM (n = 6). **p < 0.01 compared with the sham group. #p < 0.05 compared with the DMSO (solvent control) group. (B) FeCl3-induced thrombosis in mesenteric artery as observed under real-time fluorescent microscopy. […] Scale bar = 100 µm. […]
smiles,measurement,setting,value
CCCCN1C(=O)c2cccc3c(NCCNC(=O)C45CC6CC(CC(C6)C4)C5)ccc(c23)C1=O [compound 6],Duration of tail-bleeding,[1],did not significantly affect
same,Effect on U46619-induced platelet aggregation,[2],did not significantly affect
same,Effect on thrombin-induced platelet aggregation,[3],did not significantly affect
same,Platelet accumulation on the injured vessels (rhodamine 6G-labeled platelets),[4],delayed platelet accumulation
